{"source": "patent US8143403B2", "about": "(Bristol-Myers Squibb Company, priority 2008, dated 2012)", "key": {"CGRP receptor complex": {"target": "CGRP receptor complex (Homo sapiens, UniProt O60894+Q16602)", "sequence (Q16602 23-461)": "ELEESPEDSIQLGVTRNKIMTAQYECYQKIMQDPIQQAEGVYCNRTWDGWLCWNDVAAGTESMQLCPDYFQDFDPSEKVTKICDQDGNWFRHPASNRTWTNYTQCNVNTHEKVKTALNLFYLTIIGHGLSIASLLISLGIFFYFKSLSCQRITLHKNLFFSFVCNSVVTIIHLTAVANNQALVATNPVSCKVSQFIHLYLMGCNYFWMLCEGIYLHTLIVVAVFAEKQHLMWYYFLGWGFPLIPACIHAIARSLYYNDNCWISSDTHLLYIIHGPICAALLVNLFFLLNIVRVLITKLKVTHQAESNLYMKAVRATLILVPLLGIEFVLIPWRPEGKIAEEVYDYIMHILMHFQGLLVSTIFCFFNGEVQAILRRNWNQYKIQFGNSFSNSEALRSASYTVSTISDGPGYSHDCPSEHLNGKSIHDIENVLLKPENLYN", "sequence (O60894 27-148)": "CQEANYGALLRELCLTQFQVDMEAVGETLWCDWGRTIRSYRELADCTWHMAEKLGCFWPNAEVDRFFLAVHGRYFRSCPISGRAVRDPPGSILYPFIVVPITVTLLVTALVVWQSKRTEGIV", "test": "Functional antagonism/Schild analysis, CGRP-stimulated cAMP production (HTRF) in SK-N-MC cells", "format": "cell-based", "procedure": "Saturation/Scatchard Analysis. […] Saturation data were analyzed using a one site binding equation to estimate apparent equilibrium dissociation constant (Kd) and the maximum number of binding sites (Bmax) (Prizm v4.0, Graphpad). […] Functional Antagonism/Schild analysis. Agonist stimulation of CGRP receptor complex leads to cyclic AMP (adenosine 3′5′-cyclic monophosphate) production via Gs-dependent activation of an adenylate cyclase (Juaneda C et al., TiPS, 2000; 21:432-438). Consequently, CGRP receptor antagonists inhibit CGRP-induced cyclic AMP formation in SK-N-MC cells which natively express the CGRP receptor complex (Doods H et al., Br J Pharmacol, 2000; 129(3):420-423). […] A Schild analysis format was used, which allowed investigation of the mechanism of antagonism. […] Various concentrations of CGRP were added and the cells were allowed to incubate 30 min at room temperature. The cells were lysed with lysis reagent and cAMP concentrations were determined by HTRF according to the manufacturer's instructions. A standard curve using known quantities of cAMP was evaluated in parallel to allow conversion of HTRF ratio to nM cAMP. The resulting curves were then evaluated using a Gaddum/Schild equation individually and with global fitting (Prizm v4.0, Graphpad). […] To obtain a global fit the following parameters were shared (top, bottom, logEC50, Hill slope and pA2) and all curves were fit simultaneously. […] Non-Terminal Method for Assessing In Vivo Efficacy of Small Molecule CGRP-Receptor Antagonists in Mammals Overview. […] Non-human primates (e.g., marmosets) are the only animals known to have human-like CGRP receptor pharmacology conferred by the presence of the specific amino acid residue (Trp74) in their RAMP1 sequence which is responsible for the phenotype of the human receptor (Mallee et al. J Biol Chem 2002 277:14294). […]"}, "[1]": {"tested_on": "CGRP-induced increase in laser Doppler facial blood flow", "test": "Inhibition of CGRP-induced increase in laser Doppler facial blood flow in non-human primate", "format": "in vivo, common marmoset (Callithrix jacchus)", "conditions": "pretreat −30 min, hαCGRP 10 μg/kg i.v.", "procedure": "FIG. 4. […] Data are peak % change from baseline±sem, with each animal serving as its own control.\nSaturation/Scatchard Analysis. […] Saturation data were analyzed using a one site binding equation to estimate apparent equilibrium dissociation constant (Kd) and the maximum number of binding sites (Bmax) (Prizm v4.0, Graphpad). […] Functional Antagonism/Schild analysis. Agonist stimulation of CGRP receptor complex leads to cyclic AMP (adenosine 3′5′-cyclic monophosphate) production via Gs-dependent activation of an adenylate cyclase (Juaneda C et al., TiPS, 2000; 21:432-438). Consequently, CGRP receptor antagonists inhibit CGRP-induced cyclic AMP formation in SK-N-MC cells which natively express the CGRP receptor complex (Doods H et al., Br J Pharmacol, 2000; 129(3):420-423). […] A Schild analysis format was used, which allowed investigation of the mechanism of antagonism. […] Various concentrations of CGRP were added and the cells were allowed to incubate 30 min at room temperature. The cells were lysed with lysis reagent and cAMP concentrations were determined by HTRF according to the manufacturer's instructions. A standard curve using known quantities of cAMP was evaluated in parallel to allow conversion of HTRF ratio to nM cAMP. The resulting curves were then evaluated using a Gaddum/Schild equation individually and with global fitting (Prizm v4.0, Graphpad). […] To obtain a global fit the following parameters were shared (top, bottom, logEC50, Hill slope and pA2) and all curves were fit simultaneously. […] Non-Terminal Method for Assessing In Vivo Efficacy of Small Molecule CGRP-Receptor Antagonists in Mammals Overview. […] Non-human primates (e.g., marmosets) are the only animals known to have human-like CGRP receptor pharmacology conferred by the presence of the specific amino acid residue (Trp74) in their RAMP1 sequence which is responsible for the phenotype of the human receptor (Mallee et al. J Biol Chem 2002 277:14294). Since current migraine models primarily use rats (Escott et al. Brain Res 1995 669:93; Williamson et al. Cephalalgia 1997 17:525), or are invasive, terminal procedures in primates (Doods et al. Br J Pharmacol 2000 129:420), a novel non-invasive, survival model in non-human primates for in vivo efficacy assessment of CGRP-receptor antagonists was developed. […] Peptide and small-molecule CGRP-receptor antagonists were used to validate the non-human primate model. […] Animals. Adult male and female common marmosets (Callithrix jacchus) purchased from Harlan and weighing 350-550 g served as subjects. Anesthesia & Surgical Preparation. Animals are anesthetized by isoflurane inhalation in an induction chamber (4-5% rapid induction, maintained with 1-2.5%; Solomon et al., 1999)."}}, "note": "Values joined by “and” are separate entries in the source; they are usually repeats but may differ in a detail not shown here. Identical values can stand only once. Marks after values point to notes of the source that are not given here.", "data": [{"smiles": "O=C(O[C@@H]1CC[C@@H](c2cccc(F)c2F)Cc2cccnc21)N1CCC(n2c(=O)[nH]c3ncccc32)CC1", "note": "[Example 20]", "values": [{"measurement": "effect on maximal CGRP response (cAMP production)", "setting": "CGRP receptor complex; 15 min pre-incubation, 0.3 to 24 nM antagonist", "value": "without altering the maximal response"}, {"measurement": "Kb", "setting": "CGRP receptor complex; global Gaddum/Schild fit, Schild slope of 1, two datasets", "value": "247 ± 40", "unit": "pM"}, {"measurement": "Schild slope", "setting": "CGRP receptor complex; global fits with unconstrained Schild slope, two separate experiments", "value": "1.17 and 0.8"}, {"measurement": "% Inhibition", "setting": "[1]; 0.1 mg/kg s.c., 15 min", "value": 9.9, "unit": "%"}, {"measurement": "% Inhibition", "setting": "[1]; 0.1 mg/kg s.c., 60 min", "value": "−6.7", "unit": "%"}, {"measurement": "% Inhibition", "setting": "[1]; 0.1 mg/kg s.c., 105 min", "value": "−4.9", "unit": "%"}, {"measurement": "% Inhibition", "setting": "[1]; 0.3 mg/kg s.c., 15 min", "value": 28.8, "unit": "%"}, {"measurement": "% Inhibition", "setting": "[1]; 0.3 mg/kg s.c., 60 min", "value": "27.6* %"}, {"measurement": "% Inhibition", "setting": "[1]; 0.3 mg/kg s.c., 105 min", "value": "41.2* %"}, {"measurement": "% Inhibition", "setting": "[1]; 3 mg/kg s.c., 15 min", "value": 26.5, "unit": "%"}, {"measurement": "% Inhibition", "setting": "[1]; 3 mg/kg s.c., 60 min", "value": "36.7* %"}, {"measurement": "% Inhibition", "setting": "[1]; 3 mg/kg s.c., 105 min", "value": "39.0* %"}, {"measurement": "% Inhibition", "setting": "[1]; 7 mg/kg s.c., 15 min", "value": 25.1, "unit": "%"}, {"measurement": "% Inhibition", "setting": "[1]; 7 mg/kg s.c., 60 min", "value": "53.9* %"}, {"measurement": "% Inhibition", "setting": "[1]; 7 mg/kg s.c., 105 min", "value": "70.0* %"}]}]}
